The record followed here is US11602551B2, “Use of inosine for the treatment of t-reg deficiency” (BioGaia AB, priority 2016, dated 2023).

This experiment concerns Splenic lymphocytes. As to the kind of experiment: Lymphocyte proliferation test (XTT). The experiment is classed as cell-based, mice. The procedure:
Splenic lymphocytes were split into 96-well plates at an initial density of 2×10^4 cells per well and were incubated with different doses of inosine under control, 40 μg/ml of LPS or 10 μg/ml of PHA condition, respectively. After 96 h, cell viability was measured by TACS XTT cell proliferation assay kit (Trevigen, Inc. Gaithersburg, Md.).
For orientation: Tetrazolium dyes change colour on reduction, which living cells bring about.

Take `O=c1[nH]cnc2c1ncn2[C@@H]1O[C@H](CO)[C@@H](O)[C@H]1O` [inosine]: where the note is “96 h treatment, 10 μg/ml of PHA”, the “proliferation of PHA-stimulated T-lymphocytes” value is recorded as “does not inhibit”. For the same compound, the “proliferation of LPS-stimulated B-lymphocytes” value (96 h treatment, 40 μg/ml of LPS) was “does not inhibit”. Besides, the “proliferation of lymphocytes in vitro” value (different doses of inosine, 96 h) was “did not inhibit”.
